This note sets out measurements from patent US8580579B2, “Hydrophilic and lipophilic rhodamines for labelling and imaging” (Max-Planck-Gesellschaft zur Foerderung der Wissenschaften …, priority 2009, dated 2013).

Data set [1] can be described thus: Bleaching measurements by pump-probe cycles. The following applies: 50 pump-probe cycles, pump intensity 18 kW/cm^2, 633 nm CW, 10 ms pulses, air-oxygen. The data set is classed as physicochemical. The procedure: The degree of photodecomposition was evaluated by measuring the decrease in the fluorescence intensity of compound 6 (FIG. 5). […] The pulse duration was 10 ms, and the pulse power 18.3 kW/cm^2 (633 nm CW laser light). Photostability of compound 6 is strong: 50 pump-probe cycles with a pump intensity of 18 kW/cm^2 only bleach 25% of the ensemble allowing for a high number of single-molecule returns, i.e. a high number of single-molecule localizations and thus a final image with high contrast.

Data set [2] in a line: UV-visible absorption and fluorescence spectra of the dyes of the invention. The data set is classed as physicochemical. The procedure: UV-visible absorption spectra were recorded on a Varian Cary 4000 UV-Vis spectrophotometer, and fluorescence spectra on a Varian Cary Eclipse fluorescence spectrophotometer. Reactions were carried out upon magnetic stirring in Schlenk flasks equipped with septa or reflux condensers with bubble-counters under argon using a standard manifold with vacuum and argon lines. All NMR spectra are referenced to tetramethylsilane as an internal standard (δ=0 ppm) using the signals of the residual protons of CHCl3 (7.26 ppm) in CDCl3, CHD2OD (3.31 ppm) in CD3OD, HOD (4.75 ppm) in D2O, [D5]acetone (2.04 ppm) in [D6]acetone or [D5]DMSO (2.50 ppm) in [D6]DMSO. Multiplicities of signals are described as follows: s=singlet, br. s=broad singlet, d=doublet, t=triplet, q=quartet, quint=quintet, m=multiplet, mc=centrosymmetrical multiplet. Coupling constants (J) are given in Hz. Multiplicities in the ^13C NMR spectra were determined by APT (Attached Proton Test) measurements. Low resolution mass spectra (electro spray ionization, ESI) were obtained with LCQ and ESI-TOF mass-spectrometers (MICROTOF (focus), Fa. Bruker). The MICROTOF spectrometer equipped with ESI ion source Apollo and direct injector with LC autosampler Agilent RR 1200 was used for obtaining high resolution mass spectra (ESI-HRMS). ESI-HRMS were obtained also on APEX IV spectrometer (Bruker). HPLC system (Knauer): Smartline pump 1000 (2×), UV detector 2500, column thermostat 4000 (25° C.), mixing chamber, injection valve with 20 and 100 μL loop for the analytical and preparative columns, respectively; 6-port-3-channel switching valve; analytical column: Eurospher-100 C18, 5 μm, 250×4 mm, 1.1 mL/min; preparative column: Eurospher-100-5 C18, 5 μm, 250×8 mm, 3.7 mL/min; solvent A: water+0.1% v/v trifluoroacetic acid (TFA); solvent B: MeCN+0.1% v/v TFA; detection at 636 nm (if not stated otherwise). Normal phase analytical TLC was performed on MERCK ready-to-use plates with silica gel 60 (F254) and reversed phase TLC—on RP-18W/UV254 precoated TLC plates (Macherey-Nagel). Preparative TLC was performed on MERCK HPTLC silica gel 60 plates (10×10 cm, layer thickness 0.2 mm). Column chromatography: MERCK silica gel, grade 60, 0.04-0.063 mm or Polygoprep 60-50 C18 (Macherey-Nagel).

The nature of data set [3]: Chemical and storage stability of dyes and reactive derivatives. The data set is classed as physicochemical.
The nature of data set [4]: Conjugation with antibodies: labelling degree and quantum yield of conjugates. The class given is physicochemical. An excerpt: The degree of labelling achieved with antibodies may strongly vary; typically, compounds 6/6D (taken as their NHS esters 9/9D) attached to the anti-rabbit and anti-mouse antibodies produced a labelling degree from 2.5 up to 6. […] Decrease in fluorescence quantum yields after conjugation with antibodies is normal and well documented [cf.: V. P. Boyarskiy, V. N. Below, R. Medda, B. Hein, M. Bossi, S. W. Hell, Chem. Eur. J. 2008, 14, 1784-1792].

Data set [5] can be described thus: Excited state lifetime and FCS study under single molecule conditions. The class given is physicochemical.
Data set [6] in a line: Ground state depletion studies (pump-probe mode). The data set is classed as physicochemical. An excerpt:
The compound 6 is excellent for super-resolution far-field microscopy based on ground-state depletion, such as GSDIM (ground-state depletion followed by individual molecule return; J. Fölling et. al, Nature Meth. 2008, 5, 943-945). Here, “off” and “on” switching of the fluorescence is achieved by transiently shelving the fluorophore into a metastable dark state. Upon the return of only a few isolated single molecules to the fluorescent singlet state, positions of these single light emitting spots can be imaged on a camera and localized with high precision. Upon repeating this procedure and acquiring many pictures, a super-resolution image can be reconstructed from the localized positions. A prerequisite of this method is that >90% of the ensemble of the applied fluorescent dye can be shelved into a dark state at a time (to ensure the detection of isolated fluorescent spots at a time in a densely labeled sample) and that the fluorophore is bright enough, i.e., that it emits enough photons while being in the singlet on-state (to ensure high precision of localization). […] Switching off of the laser leads to a recovery of the fluorescence ensemble within a characteristic recovery time of 50 ms (FIG. 7), indicating the shelving into a metastable dark state. The measurements of FIGS. 6 and 7 were performed in a pump-probe mode, i.e., the residual level of fluorescence was probed with I=100 W/cm^2 for 0.5 ms after strong irradiation for 10 ms with the given laser intensity. Further on, recovery of the fluorescence can be accelerated by addition of UV light, which leads to an optically-induced de-population of the dark states. Already 2 kW/cm^2 of 375 nm light recovers 60% of the fluorescence within an irradiation period of 1 ms (FIG. 8). This is important in cases of samples of low label density where the addition of UV light and thus acceleration of dark state return helps to accelerate image acquisition.

Data set [7] is described as follows: Fluorescence quantum yield, Atto 633 as reference. The class given is physicochemical. The settings on record: Atto 633 as reference (Φfl = 64% in aqueous buffer). An excerpt:
Moreover, intersystem crossing rates (kISC) and rates of the T1→S0 transitions were also found to be the same for both deuterated and undeuterated substances (see ref. to Table 2).

The nature of data set [8]: Solubility and polarity of the dyes.
A short description of the next data set: physchem. The following applies: water.

“Also recorded” adds a separate entry of the source. Some results are limits rather than exact numbers.

With `CN(CCC(=O)O)C(=O)c1c(F)c(F)c(F)c(F)c1C1=c2cc3c4c(c2Oc2c1cc1c5c2CCCN5C(C)(C)C=C1CS(=O)(=O)O)CCC[N+]=4C(C)(C)C=C3CS(=O)(=O)[O-]` [Compound 6], the “fraction of the ensemble bleached” value in [1] is listed as 25%. Also, in [2] (dyes of the invention), the Stokes shift is 23 nm. For the same molecule, in data set [2] (solvent H2O), the “ε · 10^−5” value came out at 0.94 M^−1 cm^−1, the “λmax (abs.)” value is 637 nm and the “λmax (fl.)” value is given as 660 nm. For the same molecule, the “stability in methanol or methanol-containing solutions” value in [3] was “formed the corresponding methyl ester; also recorded: rapid esterification of the β-alanine fragment with methanol”. In addition, the “fluorescence quantum yield of the conjugate” value in [4] (conjugate with goat anti-rabbit antibodies) amounted to 40%. Besides, in data set [4] (conjugate with sheep anti-mouse antibodies), the “fluorescence quantum yield of the conjugate” value is 48%. The “τfl (excited state lifetime)” value in data set [5] was 3.57^20 ns. For the same molecule, the “fluorescence recovered by UV light” value in [6] (2 kW/cm^2 of 375 nm light, irradiation period 1 ms) is 60%. The “extent of ground state depletion” value in [6] (633 nm laser pulses, ca. 12 kW/cm^2) is 97±3%. Further, the “fluorophores switched off at a time” value in data set [6] (I>10 kW/cm^2 CW 633 nm, poly(vinyl alcohol) matrix) turned out to be 97%. Further, the Φfl in water in data set [7] was found to be 80%. In [8], the polarity entry is on record as “polar; also recorded: hydrophilic”; the “solubility in organic solvents” value is “insoluble in diethyl ether, aliphatic, chlorinated, and aromatic hydrocarbons”; the “solubility in water or aqueous buffers” value was “soluble in water; also recorded: soluble in water or aqueous buffers”. Further, the solubility in water in data set [8] (room temperature) was 40-45 mg in 1 mL. For the same molecule, the solubility (in general, the concentration that dissolves in the medium under given conditions) in “physchem” was > 100 mM.
